Data published in ChEMBL document CHEMBL5442334, “ASAP - In vitro safety pharmacology profile” (2024).

Legend:
[1] = system: Voltage-gated sodium channel; experiment: SafetyScreen: Sodium Ion Channel Site 2 (Non-Selective) Rat Ion Channel [3H] Batrachotoxinin Binding LeadHunter Assay, catalogue number: 169; format: protein assay; details: at 10 µM, test compound concentration 10 uM
[2] = target: Sodium-dependent noradrenaline transporter (Homo sapiens) (UniProt P23975); experiment: SafetyScreen: NET Human Norepinephrine Transporter Binding Antagonist Radioligand LeadHunter Assay, catalogue number: 355; details: Test compound concentration 10.0 uM
Sequence of Sodium-dependent noradrenaline transporter (Homo sapiens) (P23975 whole entry): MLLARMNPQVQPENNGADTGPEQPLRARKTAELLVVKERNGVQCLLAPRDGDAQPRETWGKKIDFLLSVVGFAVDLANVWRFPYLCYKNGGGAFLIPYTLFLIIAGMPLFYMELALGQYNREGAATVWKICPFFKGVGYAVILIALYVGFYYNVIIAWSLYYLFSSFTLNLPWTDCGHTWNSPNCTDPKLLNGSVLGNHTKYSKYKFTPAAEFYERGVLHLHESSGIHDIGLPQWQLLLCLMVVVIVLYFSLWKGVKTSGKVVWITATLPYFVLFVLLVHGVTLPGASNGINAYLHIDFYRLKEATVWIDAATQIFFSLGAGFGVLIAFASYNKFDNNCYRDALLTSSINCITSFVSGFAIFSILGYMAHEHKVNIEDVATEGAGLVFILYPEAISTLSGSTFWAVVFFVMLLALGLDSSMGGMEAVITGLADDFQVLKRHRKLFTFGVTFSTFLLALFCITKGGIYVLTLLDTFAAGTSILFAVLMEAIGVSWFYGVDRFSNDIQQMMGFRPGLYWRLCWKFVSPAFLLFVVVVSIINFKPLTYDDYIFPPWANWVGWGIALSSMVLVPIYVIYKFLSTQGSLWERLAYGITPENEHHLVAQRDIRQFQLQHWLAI

[3] = target: Voltage-gated inwardly rectifying potassium channel KCNH2 (Homo sapiens, UniProt Q12809); experiment: SafetyScreen: hERG Human Potassium Ion Channel [3H] Dofetilide Binding Antagonist Radioligand SafetyScreen, catalogue number: 4094; details: at 10 µM, test compound concentration 10 uM
Sequence of Voltage-gated inwardly rectifying potassium channel KCNH2 (Q12809 whole entry): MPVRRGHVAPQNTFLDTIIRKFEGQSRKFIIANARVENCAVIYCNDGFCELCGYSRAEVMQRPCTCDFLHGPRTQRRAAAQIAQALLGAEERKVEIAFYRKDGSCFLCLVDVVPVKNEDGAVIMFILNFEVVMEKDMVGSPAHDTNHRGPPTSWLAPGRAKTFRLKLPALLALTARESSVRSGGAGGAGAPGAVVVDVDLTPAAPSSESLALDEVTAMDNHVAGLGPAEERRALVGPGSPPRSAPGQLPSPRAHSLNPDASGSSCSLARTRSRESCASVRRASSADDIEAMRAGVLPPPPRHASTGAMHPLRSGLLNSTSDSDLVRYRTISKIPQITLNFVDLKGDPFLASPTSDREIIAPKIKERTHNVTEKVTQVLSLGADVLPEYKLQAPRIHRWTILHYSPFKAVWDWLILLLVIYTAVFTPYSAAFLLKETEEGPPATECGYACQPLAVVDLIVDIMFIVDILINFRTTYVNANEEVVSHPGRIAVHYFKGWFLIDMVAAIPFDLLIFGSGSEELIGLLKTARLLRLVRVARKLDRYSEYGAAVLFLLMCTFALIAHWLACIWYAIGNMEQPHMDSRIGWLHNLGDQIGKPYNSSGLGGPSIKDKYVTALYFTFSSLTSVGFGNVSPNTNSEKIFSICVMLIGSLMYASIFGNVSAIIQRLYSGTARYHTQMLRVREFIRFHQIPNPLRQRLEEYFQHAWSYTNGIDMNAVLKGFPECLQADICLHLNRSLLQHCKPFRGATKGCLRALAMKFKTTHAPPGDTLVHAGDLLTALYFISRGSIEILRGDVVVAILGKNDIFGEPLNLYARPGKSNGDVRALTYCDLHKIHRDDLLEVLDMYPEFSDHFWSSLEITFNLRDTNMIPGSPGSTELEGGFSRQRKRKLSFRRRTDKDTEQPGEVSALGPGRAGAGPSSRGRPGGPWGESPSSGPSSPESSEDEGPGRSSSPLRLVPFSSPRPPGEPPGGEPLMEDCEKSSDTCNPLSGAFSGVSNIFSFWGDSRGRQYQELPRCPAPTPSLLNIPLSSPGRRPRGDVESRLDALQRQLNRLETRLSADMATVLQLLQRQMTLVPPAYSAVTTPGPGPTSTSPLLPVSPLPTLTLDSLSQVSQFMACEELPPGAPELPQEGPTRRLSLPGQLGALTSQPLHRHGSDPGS

[4] = target: T1, 5-hydroxytryptamine receptor 3A (Homo sapiens) (UniProt P46098); experiment: SafetyScreen: 5-HT3 Human Serotonin Ion Channel Binding Antagonist Radioligand LeadHunter Assay, catalogue number: 411; details: Test compound concentration 10.0 uM
T1 sequence (whole entry): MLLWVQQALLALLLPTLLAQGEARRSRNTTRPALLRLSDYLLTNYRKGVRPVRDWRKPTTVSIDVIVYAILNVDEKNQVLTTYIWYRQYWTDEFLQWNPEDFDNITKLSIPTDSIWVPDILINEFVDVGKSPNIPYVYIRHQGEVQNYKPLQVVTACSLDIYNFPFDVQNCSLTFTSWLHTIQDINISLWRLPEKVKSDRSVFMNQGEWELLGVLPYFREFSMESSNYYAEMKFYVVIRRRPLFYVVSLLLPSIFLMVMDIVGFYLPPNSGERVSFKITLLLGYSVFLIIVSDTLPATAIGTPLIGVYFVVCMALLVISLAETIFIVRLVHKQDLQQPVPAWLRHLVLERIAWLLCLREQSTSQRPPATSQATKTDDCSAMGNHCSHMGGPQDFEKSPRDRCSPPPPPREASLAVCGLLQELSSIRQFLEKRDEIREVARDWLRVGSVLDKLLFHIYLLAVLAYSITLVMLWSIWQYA

[5] = target: T2, Androgen receptor (Homo sapiens) (UniProt P10275); experiment: SafetyScreen: AR Human Androgen NHR Binding Agonist Radioligand LeadHunter Assay, catalogue number: 933; details: Test compound concentration 10.0 uM
T2 sequence (whole entry): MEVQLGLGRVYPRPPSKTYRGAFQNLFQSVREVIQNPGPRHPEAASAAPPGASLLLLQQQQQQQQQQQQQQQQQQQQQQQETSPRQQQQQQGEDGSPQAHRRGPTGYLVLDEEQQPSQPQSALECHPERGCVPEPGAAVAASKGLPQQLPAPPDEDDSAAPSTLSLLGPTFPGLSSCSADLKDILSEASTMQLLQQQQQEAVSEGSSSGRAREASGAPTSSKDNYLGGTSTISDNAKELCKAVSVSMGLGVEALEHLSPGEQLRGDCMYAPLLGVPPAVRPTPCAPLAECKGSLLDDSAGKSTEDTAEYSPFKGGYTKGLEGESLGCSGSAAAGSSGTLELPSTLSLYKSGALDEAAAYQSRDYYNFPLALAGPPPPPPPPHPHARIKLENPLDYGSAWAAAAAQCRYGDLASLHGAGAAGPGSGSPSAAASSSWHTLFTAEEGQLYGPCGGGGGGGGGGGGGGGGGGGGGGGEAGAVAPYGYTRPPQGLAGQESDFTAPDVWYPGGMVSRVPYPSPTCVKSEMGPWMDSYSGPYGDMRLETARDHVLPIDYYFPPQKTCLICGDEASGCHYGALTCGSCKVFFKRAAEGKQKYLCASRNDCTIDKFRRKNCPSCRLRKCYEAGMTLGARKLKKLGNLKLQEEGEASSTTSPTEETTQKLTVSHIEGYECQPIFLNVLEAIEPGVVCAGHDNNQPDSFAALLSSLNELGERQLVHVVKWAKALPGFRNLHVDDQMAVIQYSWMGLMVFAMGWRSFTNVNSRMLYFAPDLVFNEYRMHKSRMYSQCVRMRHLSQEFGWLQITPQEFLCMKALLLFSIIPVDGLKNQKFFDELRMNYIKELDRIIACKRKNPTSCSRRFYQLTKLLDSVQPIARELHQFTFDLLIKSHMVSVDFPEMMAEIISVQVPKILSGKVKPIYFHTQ

[6] = target: D(2) dopamine receptor (Homo sapiens) (UniProt P14416); experiment: SafetyScreen: D2S Human Dopamine GPCR Binding Agonist Radioligand LeadHunter Assay, catalogue number: 1322; details: Test compound concentration 10.0 uM
Sequence of D(2) dopamine receptor (Homo sapiens) (P14416 whole entry): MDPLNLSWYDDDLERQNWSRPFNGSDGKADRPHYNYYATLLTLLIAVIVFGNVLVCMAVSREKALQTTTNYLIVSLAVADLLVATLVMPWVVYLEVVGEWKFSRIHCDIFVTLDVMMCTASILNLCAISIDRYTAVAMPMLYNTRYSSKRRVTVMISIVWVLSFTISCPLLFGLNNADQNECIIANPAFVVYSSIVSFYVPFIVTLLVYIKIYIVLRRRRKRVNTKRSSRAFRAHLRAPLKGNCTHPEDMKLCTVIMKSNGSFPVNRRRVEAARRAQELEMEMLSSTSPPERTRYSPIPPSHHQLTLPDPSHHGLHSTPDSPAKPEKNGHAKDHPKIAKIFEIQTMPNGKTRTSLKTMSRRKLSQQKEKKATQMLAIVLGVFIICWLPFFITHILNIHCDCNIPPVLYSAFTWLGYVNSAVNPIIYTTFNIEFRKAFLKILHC

[7] = target: Glutamate NMDA receptor (Rattus norvegicus) (UniProt P35439+Q00959+Q00960+Q00961+Q62645+Q8VHN2+Q9R1M7); experiment: SafetyScreen: Glutamate (NMDA, Non-Selective) Rat Ion Channel [3H] CGP-39653 Binding LeadHunter Assay, catalogue number: 66; format: protein-complex assay; details: Test compound concentration 10.0 uM
[8] = target: T3, Muscarinic acetylcholine receptor M2 (Homo sapiens) (UniProt P08172); experiment: SafetyScreen: M2 Human Acetylcholine (Muscarinic) GPCR Binding Antagonist Radioligand LeadHunter Assay, catalogue number: 93; details: Test compound concentration 10.0 uM
T3 sequence (whole entry): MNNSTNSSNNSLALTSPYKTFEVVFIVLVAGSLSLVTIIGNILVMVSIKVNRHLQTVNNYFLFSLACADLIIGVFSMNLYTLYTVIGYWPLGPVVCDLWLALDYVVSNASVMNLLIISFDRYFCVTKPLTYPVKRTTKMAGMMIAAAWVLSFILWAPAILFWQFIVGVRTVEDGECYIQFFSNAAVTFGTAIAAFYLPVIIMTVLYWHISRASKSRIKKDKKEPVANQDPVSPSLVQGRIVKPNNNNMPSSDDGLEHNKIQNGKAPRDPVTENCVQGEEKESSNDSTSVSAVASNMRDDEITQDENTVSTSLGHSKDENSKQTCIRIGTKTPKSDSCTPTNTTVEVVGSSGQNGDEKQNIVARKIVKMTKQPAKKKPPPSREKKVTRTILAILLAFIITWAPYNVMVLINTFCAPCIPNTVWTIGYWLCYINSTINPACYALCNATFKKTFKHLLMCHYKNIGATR

[9] = target: Acetylcholinesterase (Homo sapiens) (UniProt P22303); experiment: SafetyScreen: Acetylcholinesterase Human Enzymatic LeadHunter Assay, catalogue number: 363; format: functional; details: Test compound concentration 10.0 uM
Sequence of Acetylcholinesterase (Homo sapiens) (P22303 whole entry): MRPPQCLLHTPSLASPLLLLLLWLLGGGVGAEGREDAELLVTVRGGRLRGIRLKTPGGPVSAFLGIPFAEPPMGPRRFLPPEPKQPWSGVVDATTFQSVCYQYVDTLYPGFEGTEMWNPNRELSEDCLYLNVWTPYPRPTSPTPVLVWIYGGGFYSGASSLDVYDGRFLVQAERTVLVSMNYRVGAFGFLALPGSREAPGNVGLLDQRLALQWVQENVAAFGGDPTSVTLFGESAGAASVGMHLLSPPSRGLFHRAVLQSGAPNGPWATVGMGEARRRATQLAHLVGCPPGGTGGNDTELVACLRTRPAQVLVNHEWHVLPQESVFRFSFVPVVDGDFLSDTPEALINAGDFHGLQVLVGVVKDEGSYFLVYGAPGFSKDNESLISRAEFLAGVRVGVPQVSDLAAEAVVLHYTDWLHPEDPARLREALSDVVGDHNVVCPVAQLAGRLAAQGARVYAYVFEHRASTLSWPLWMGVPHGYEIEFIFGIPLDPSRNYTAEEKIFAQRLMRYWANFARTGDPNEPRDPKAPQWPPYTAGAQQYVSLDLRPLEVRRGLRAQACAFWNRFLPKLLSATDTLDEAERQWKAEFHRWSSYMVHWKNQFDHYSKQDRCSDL

[10] = target: T4, Cholecystokinin receptor type A (Homo sapiens) (UniProt P32238); experiment: SafetyScreen: CCK1 (CCKA) Human Cholecystokinin GPCR Binding Agonist Radioligand LeadHunter Assay, catalogue number: 39; details: Test compound concentration 10.0 uM
T4 sequence (whole entry): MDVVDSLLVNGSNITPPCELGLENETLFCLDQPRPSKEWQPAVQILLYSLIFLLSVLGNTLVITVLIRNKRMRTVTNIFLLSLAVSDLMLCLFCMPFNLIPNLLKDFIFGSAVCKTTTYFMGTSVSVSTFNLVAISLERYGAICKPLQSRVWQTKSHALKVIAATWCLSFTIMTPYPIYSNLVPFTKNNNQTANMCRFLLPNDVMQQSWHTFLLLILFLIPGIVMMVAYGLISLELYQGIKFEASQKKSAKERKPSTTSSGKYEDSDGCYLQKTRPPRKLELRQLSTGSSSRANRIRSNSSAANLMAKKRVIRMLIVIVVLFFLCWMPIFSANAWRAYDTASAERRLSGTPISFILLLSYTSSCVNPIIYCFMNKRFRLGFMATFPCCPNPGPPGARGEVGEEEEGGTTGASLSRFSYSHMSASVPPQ

| Structure (SMILES) | Inhibition [1] [%] | inhibition [2] [%] | Inhibition [3] [%] | inhibition [4] [%] | inhibition [5] [%] | inhibition [6] [%] | inhibition [7] [%] | inhibition [8] [%] | inhibition [9] [%] | inhibition [10] [%] |
| --- | --- | --- | --- | --- | --- | --- | --- | --- | --- | --- |
| CC(C)[C@H](Nc1ncnc2[nH]c(-c3cnn(C)c3C#N)cc12)c1ccc2c(n1)OCCO2 | 10 | 9 | 29 | 6 | -3 | -7 | 2 | 18 | 15 | 1 |
| CC(C)[C@@H](Nc1ncnc2[nH]c(-c3cnn(C)c3C#N)cc12)c1ccc2c(n1)OCCO2 | 12 | 4 | 32 | 4 | 12 | 3 | 1 | 15 | 22 | 20 |
| COc1ccc([C@H](Cc2nnn[nH]2)NC(=O)c2ncnc3[nH]ccc23)cc1 | -3 | -5 | 5 | 6 | -2 | -4 | 9 | – | 11 | -5 |
| C[C@H](C(=O)O)[C@@H](NC(=O)c1ncnc2[nH]ccc12)c1ccc(Br)cc1 | 6 | -6 | 14 | 2 | 12 | -1 | 4 | -4 | 12 | 6 |
| CC(C)[C@@H](Nc1ncnc2[nH]c(C(=O)N[C@@H]3CCN(C)C3)cc12)c1ccc2c(c1)S(=O)(=O)CCC2 | 16 | -1 | 7 | 2 | -5 | -7 | 1 | 52 | 28 | 7 |
| CC(C)[C@H](Nc1ncnc2[nH]ccc12)c1ccc2c(c1)S(=O)(=O)CCC2 | -5 | -3 | 20 | 8 | 0 | – | -1 | 34 | 12 | -2 |
| CNCc1cc(-c2cc3c(N[C@@H](c4ccc5c(c4)S(=O)(=O)CCC5)C(C)C)ncnc3[nH]2)co1 | 19 | 39 | – | 0 | 10 | -9 | -1 | 52 | 10 | – |
| CNC(=O)Cn1cc(-c2cc3c(N[C@@H](c4ccc5c(c4)S(=O)(=O)CCC5)C(C)C)ncnc3[nH]2)cn1 | 11 | -7 | 4 | 5 | 0 | – | -1 | 7 | 13 | -4 |
| Cc1nn(C)cc1-c1cc2c(N[C@H](c3ccc4c(c3)S(=O)(=O)CCC4)C(C)C)ncnc2[nH]1 | -1 | -2 | 3 | 6 | 6 | – | -2 | 5 | 13 | -8 |
| Cn1ncc(-c2cc3c(N[C@@H](c4ccc5c(n4)OCCO5)C(C)(C)C)ncnc3[nH]2)c1C#N | 34 | 27 | 36 | 3 | 5 | 13 | 11 | 25 | 14 | 4 |
